Measurements reported in patent publication US9895344B2, “Treating various disorders with 7,8-dihydroxyflavone and derivatives thereof” (EMORY UNIVERSITY, priority 2008, dated 2018).

Experiments:
[1] = test system: KA-induced apoptosis in hippocampus; test: Kainic acid-induced apoptosis in mouse hippocampus (TUNEL); type: in vivo, C57BL/6 mice; settings: 5 mg/kg intraperitoneally followed by 20 mg/kg KA, 5 days, FIG. 19
Source text: Kainic acid (KA) is a potent agonist for the AMPA receptor. Peripheral injections of KA result in recurrent seizures and the subsequent degeneration of select populations of neurons in the hippocampus (Schauwecker and Steward, Proc. Natl. Acad. Sci. USA, 94:4103-8, 1997). KA induces neuronal cell death in a caspase-dependent and independent manners (Faherty et al., Brain Res. Mol. Brain. Res., 70:159-63, 1999; Glassford et al., Neurol. Res., 24:796-800, 2002; Liu et al., Mol. Cell, 29:665-78, 2008). To explore whether 7,8-dihydroxyflavone can block the neurotoxicity initiated by KA, C57BL/6 mice aged 60 days were intraperitoneally injected with either a single dose of 20% DMSO in saline, 20 mg/kg KA (Sigma), or 5 mg/kg of 7,8-dihydroxyflavone followed by 20 mg/kg of KA. In 5 days, the mice were anesthetized, perfused with 4% paraformaldehyde in 0.1M phosphate buffered saline, and the brains were removed, post-fixed overnight, and processed for paraffin embedding. Serial sections of the brain were cut to a thickness of 5 μm and mounted on slides (Superfrost-plus, Fisher; Pittsburgh, Pa.).

Caspase-3 activation = test: Glutamate-provoked Caspase-3 activation in wild-type and TrkB-/- cortical neurons; type: cell-based, mice; settings: FIG. 21
Description: To determine whether 7,8-dihydroxyflavone can selectively activate TrkB receptor and prevent neuronal cell death, cortical neurons were prepared from homozygous pups of TrkB+/−mice, which were mated to the same genotype. […] Glutamate nonselectively elicited weak TrkA phosphorylation in both wild-type and TrkB-null neurons (FIG. 21, row 3).

TrkB [2] = molecular target: T1, TrkB (Mus musculus, UniProt P15209); test: Time course of TrkB activation in mouse brain; type: in vivo, C57BL/6J mice; settings: 1 mg/kg, oral injection, FIG. 28
T1 construct: from tissue; host or cells: mouse brain
Description: To compare the stimulatory effect on TrkB receptor in mouse brain, 1 mg/kg of these compounds was injected into C57BL/6J mice and monitored TrkB activation at different time points (see FIG. 28). […] In contrast, 7,8-DHF triggered TrkB activation 2 h after oral injection and peaked at 4 h and TrkB activity progressively faded away. The TrkB activity was demonstrable even at 16 h (FIG. 28).

TrkB [3] = molecular target: T1, TrkB; test: Trk activation in wild-type and TrkC knockout cortical neurons: TrkB; type: cell-based, mice; settings: FIG. 22
Description: (§1) To further assess whether 7,8-dihydroxyflavone blocks neuronal apoptosis in a TrkB dependent manner, cortical neurons were prepared from homozygous pups of TrkC+/−mice, which were mated to the same genotype. […] Glutamate weakly stimulated both TrkA and TrkB faint phosphorylation regardless of TrkC genotype (FIG. 22, rows 1 and 3). The spontaneous caspase-3 activation in TrkC−/− neurons was suppressed by 7,8-dihydroxyflavone (FIG. 22, row 5).

TrkB ECD truncates [4] = molecular target: T2, TrkB ECD truncates (Rattus norvegicus, UniProt Q63604); test: Mapping assay with TrkB ECD truncation mutants; type: binding; settings: FIG. 18
T2 construct: made in house
Description: (§2) BDNF is known to bind to the region of the TrkB ECD that contains the third leucine-rich motif (LRM), the second cysteine cluster (CC) domain, and the Immunoglobulin 2 (Ig2) domain (Haniu et al., J. Biol. Chem., 272:25296-303, 1997). To map where 7,8-dihydroxyflavone binds on the TrkB ECD, truncation mutants of the ECD were made and in vitro binding assays were conducted.

TrkB ECD truncates [5] = test: Mapping assay with TrkB ECD truncation mutants; type: binding; settings: FIG. 18
Description: as §2

TrkB [6] = molecular target: T1, TrkB; test: TrkB activation in mouse brain after intraperitoneal injection; type: in vivo, mice; settings: 5 mg/kg intraperitoneally
Description: To assess whether 7,8-dihydroxyflavone can provoke TrkB activation in the brain, mice were intraperitoneally injected with a dose of 5 mg/kg and analyzed at various time points. […] Further, as shown in FIG. 12 (right panel), the protein and mRNA levels of the neurotrophic receptors were not altered after treatment with 7,8-dihydroxyflavone.

TrkB [7] = molecular target: T1, TrkB; test: Immunoblotting of brain lysates from forced swim test mice: TrkB; type: in vivo; settings: 5 mg/kg, 21 days oral, anti-p-TrkB 817, FIG. 35
Description: To explore whether 4′-DMA-7,8-DHF and 7,8-DHF have any antidepressant effect, a forced swim test (6 minutes, immobility recorded in the last 4 minutes) was conducted after chronic treatment of male C57BL/6J mice (8 mice/group) for 21 days via oral injection.

TrkB [8] = molecular target: TrkB (Rattus norvegicus, UniProt Q63604); test: TrkB receptor dimerization in cotransfected HEK293 cells (GST pull-down); type: cell-based; parameters: expressed in transfected cells; host or cells: HEK293
Description: BDNF is known to bind the TrkB receptor and provoke its dimerization (Barbacid, J. Neurobiol., 25:1386-1403, 1994; Klein et al, Cell, 66:395-403, 1991). To explore whether 7,8-dihydroxyflavone triggers TrkB receptor dimerization, HEK293 cells were cotransfected with GST-TrkB and HA-TrkB or HA-TrkA. The cells were then treated with BDNF or small flavone compounds (0.5 μM) for 30 minutes. The cells were harvested, washed once in PBS, and lysed in 1 ml lysis buffer (50 mM Tris, ph 7.4, 150 mM NaCl, 1 mM EDTA, 0.5% Triton X-100, 1.5 mM Na3VO4, 50 mM NaF, 10 mM sodium pyrophosphate, 10 mM sodium β-glycerophosphate, 1 mM phenylmethylsulfonyl fluoride (PMSF), 5 mg/ml aprotinin, 1 mg/ml leupeptin, 1 mg/ml pepstatin A) and centrifuged for 10 minutes at 14,000×g at 4° C. The supernatant was transferred to a fresh tube and transfected TrkB receptor was separated from the supernatant with glutathione beads, and the coprecipitated proteins were resolved on SDS-PAGE.

TrkA = TrkA (Mus musculus, UniProt Q3UFB7); test: Trk activation in wild-type and TrkC knockout cortical neurons: TrkA; type: cell-based, mice; parameters: from tissue; host or cells: mouse brain; settings: FIG. 22
Description: as §1

T1 sequence (P15209 32-821): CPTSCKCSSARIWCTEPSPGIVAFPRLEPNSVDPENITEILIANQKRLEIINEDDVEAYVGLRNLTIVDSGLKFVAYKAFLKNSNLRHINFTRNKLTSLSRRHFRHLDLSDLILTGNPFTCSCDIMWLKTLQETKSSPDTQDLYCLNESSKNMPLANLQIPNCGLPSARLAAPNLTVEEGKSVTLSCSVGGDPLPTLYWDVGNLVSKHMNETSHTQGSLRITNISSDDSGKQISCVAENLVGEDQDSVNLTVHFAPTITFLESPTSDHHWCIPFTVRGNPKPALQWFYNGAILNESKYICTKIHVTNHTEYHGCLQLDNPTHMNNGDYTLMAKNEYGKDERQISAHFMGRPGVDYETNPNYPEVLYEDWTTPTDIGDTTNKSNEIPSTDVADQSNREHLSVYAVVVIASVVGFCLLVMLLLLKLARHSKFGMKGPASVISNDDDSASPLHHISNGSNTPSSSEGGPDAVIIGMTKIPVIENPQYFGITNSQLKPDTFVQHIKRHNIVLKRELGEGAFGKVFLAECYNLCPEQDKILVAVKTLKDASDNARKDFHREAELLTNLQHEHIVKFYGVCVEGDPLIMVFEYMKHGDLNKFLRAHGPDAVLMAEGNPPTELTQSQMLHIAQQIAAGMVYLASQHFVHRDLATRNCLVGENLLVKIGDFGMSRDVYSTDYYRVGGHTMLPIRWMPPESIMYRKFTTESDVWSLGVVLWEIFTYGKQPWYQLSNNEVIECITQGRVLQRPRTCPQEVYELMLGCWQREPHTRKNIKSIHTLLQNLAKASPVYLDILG
Chain of TrkB (Rattus norvegicus, UniProt Q63604) (Q63604 32-821): as the sequence (P15209 32-821) above, with T3M, S9T, A10T, V32I, R63K, S84G, M153T, L185I, S394T, S770N counted along it
Chain of TrkB (Rattus norvegicus, UniProt Q63604) (Q63604 32-821): as the sequence (P15209 32-821) above, with T3M, S9T, A10T, V32I, R63K, S84G, M153T, L185I, S394T, S770N counted along it
Chain of TrkA (Q3UFB7 34-799): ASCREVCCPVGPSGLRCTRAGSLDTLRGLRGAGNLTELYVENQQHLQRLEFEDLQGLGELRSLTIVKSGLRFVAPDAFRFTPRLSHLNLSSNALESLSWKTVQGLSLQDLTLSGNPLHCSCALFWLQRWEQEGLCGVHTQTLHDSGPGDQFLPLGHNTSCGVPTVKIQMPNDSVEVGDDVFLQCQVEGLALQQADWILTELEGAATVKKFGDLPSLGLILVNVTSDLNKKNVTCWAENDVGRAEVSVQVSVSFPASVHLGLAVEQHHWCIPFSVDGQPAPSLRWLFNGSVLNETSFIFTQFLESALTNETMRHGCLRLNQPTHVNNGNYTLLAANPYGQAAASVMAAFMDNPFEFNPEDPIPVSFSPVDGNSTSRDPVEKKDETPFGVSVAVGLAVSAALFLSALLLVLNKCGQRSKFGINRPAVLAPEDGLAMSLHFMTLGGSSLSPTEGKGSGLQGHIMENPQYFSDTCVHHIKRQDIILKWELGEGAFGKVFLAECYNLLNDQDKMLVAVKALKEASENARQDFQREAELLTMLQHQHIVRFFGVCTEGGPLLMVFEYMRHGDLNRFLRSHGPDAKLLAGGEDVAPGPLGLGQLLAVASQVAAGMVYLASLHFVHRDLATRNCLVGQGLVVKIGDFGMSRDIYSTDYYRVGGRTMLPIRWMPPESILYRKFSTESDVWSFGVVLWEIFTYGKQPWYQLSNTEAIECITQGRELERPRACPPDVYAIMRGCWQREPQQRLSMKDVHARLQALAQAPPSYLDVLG

Compound: O=c1cc(-c2ccccc2)oc2c(O)c(O)ccc12 [7,8-dihydroxyflavone]
- survival of ischemic insult and treatment (infarct volume; 5 mg/kg intraperitoneally): All animals included in the study survived
- infarct volumes (infarct volume; 5 mg/kg intraperitoneally 5 minutes prior to reperfusion, TTC 24 hours after MCAO, FIG. 20): reduced infarct volumes
- KA-induced apoptosis in hippocampus [1]: decreased KA-induced apoptosis
- Glutamate-provoked Caspase-3 activation in TrkB-/- neurons (Caspase-3 activation): not
- Glutamate-provoked Caspase-3 activation in wild-type neurons (Caspase-3 activation): substantially blocked
- TrkB activity at 16 h (TrkB [2]): demonstrable
- time at which TrkB activation was elicited (TrkB [2]): 2 h
- time at which TrkB activity peaked (TrkB [2]): 4 h
- TrkB activation in wild-type and TrkC knockout neurons (TrkB [3]): provoked TrkB
- association with the ECD (TrkB ECD truncates [4]): strongly associated
- binding to the ICD (TrkB ECD truncates [4]): did not bind
- association with the CC-2 domain (TrkB ECD truncates [5]): strongly associated
- association with the LRM-domain (TrkB ECD truncates [5]): associated less strongly
- binding to the CC-1 domain (TrkB ECD truncates [5]): did not bind
- TrkB phosphorylation in the brain (TrkB [6]; 2 hours after injection, FIG. 12): selectively phosphorylated
- protein and mRNA levels of the neurotrophic receptors (TrkB [6]; FIG. 12 right): not altered
- TrkB phosphorylation in the hippocampus (immunofluorescent staining) (TrkB [6]; FIG. 13): substantial TrkB phosphorylation
- TrkB activation in mouse brain (TrkB [7]): provoke TrkB
- dimerization of TrkB with TrkA receptor (TrkB [8]; GST-TrkB and HA-TrkA cotransfected): failed to dimerize with TrkA receptor
- TrkB dimerization (TrkB [8]; GST-TrkB and HA-TrkB, 0.5 μM, 30 minutes, FIG. 14): provoked TrkB dimerization to a similar manner as BDNF
- TrkA activation in wild-type and TrkC knockout neurons (TrkA): not TrkA activation
